Data as given in patent EP3156398A1, “AGONISTS OF THE CHEMOKINE RECEPTOR CXCR3” (Friedrich-Alexander-Universität Erlangen-Nürnberg, priority 2015, dated 2017).
Read-outs that look alike come from different tables or passages of the source.

Experiments:
CXCR3 = biological target: T1, CXCR3 (Homo sapiens, UniProt P49682); experiment: [35S]GTPγS incorporation assay; type: biochemical; details: for Emax: read-out: CXCR3 Efficacy (%) ± SEM; for CXCR3 pEC50 ± SEM: mean of three experiments in triplicate; for CXCR3 mediated G protein activation (result in words): [35S]GTPγS incorporation
T1 construct: expressed in transfected cells; host or cells: HEK293 / HEK293T cells, stably transfected; membrane preparations
T1 sequence (P49682 1-368): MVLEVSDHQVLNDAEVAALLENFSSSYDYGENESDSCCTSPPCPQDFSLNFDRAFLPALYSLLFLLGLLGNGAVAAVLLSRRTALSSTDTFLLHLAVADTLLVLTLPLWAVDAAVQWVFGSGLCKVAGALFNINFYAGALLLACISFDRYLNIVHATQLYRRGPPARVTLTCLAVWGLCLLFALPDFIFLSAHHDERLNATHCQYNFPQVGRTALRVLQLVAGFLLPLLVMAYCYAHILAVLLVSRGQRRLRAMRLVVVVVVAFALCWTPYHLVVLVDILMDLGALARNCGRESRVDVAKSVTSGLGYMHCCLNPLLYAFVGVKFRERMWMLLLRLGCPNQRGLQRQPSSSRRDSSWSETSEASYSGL
Description: Membrane preparation for allosteric radioligand RAMX3 displacement and [^35S]GTPγS incorporation assays: The human embryonic kidney (HEK) cells stably expressing the human CXCR3 receptor were cultured in 150-mm cell culture plates in DMEM/F-12 supplemented with 10% fetal bovine serum (FBS), 2 mM L-glutamine, 1% penicillin-streptomycin, 300 µgmL^-1 Zeocin and incubated at 37 °C in a humid atmosphere with 5% CO2. At 100% confluency cells were washed with PBS twice, treated with Tris EDTA buffer (10 mM Tris, 0.5 mM EDTA, 5 mM KCl, 140 mM NaCl, pH 7.4), and harvested using a cell scraper. Cells were pelleted at 1100×g for 8 min at 4 °C, resuspended in Tris-EDTA-MgCl2 buffer (50mM Tris, 5 mM EDTA, 1.5 mM CaCl2, 5 mM MgCl2, 5 mM KCl, 120 mM NaCl, pH 7.4) and followed by lysis with an Ultra-Turrax. After centrifugation at 50,000•g, at 4°C for 18 min the membranes were resuspended in the binding buffer (50 mM Tris, 1 mM EDTA, 5 mM MgCl2 and subsequently homogenized with a glass-Teflon homogenizer (20 strokes). The homogenized membranes were shock-frozen in liquid nitrogen and stored at -80°C. The protein concentration was determined with the Lowry method with bovine serum albumin used as a standard.^35
[^35S]GTPγS incorporation assay: The [^35S]GTPγS incorporation assay was performed on membrane preparations of stably transfected HEK293 cells that expressed the CXCR3 receptor. The assay was carried out in 96-well plates at the final volume of 200 µL. The incubation buffer contained 20 mM HEPES, 10 mM MgCl2•6H20,100 mM NaCl and 100 mg/L saponin (pH 7.4). Membranes (30 µgmL^-1 of membrane protein), various concentrations of test compound and CXCL11, and 1 µM GDP were preincubated in the absence of [^35S]GTPγS for 30 min at 37 °C. After the addition of 0.10 nM [^35S]GTPγS membranes were incubated for additional 30 min at 37 °C. Incubation was terminated by filtration through Whatman GF/B filters soaked with ice cold PBS. The filter-bound radioactivity was measured as described above. Three to four experiments per compound were performed with each concentration in triplicate.
The activation of G proteins was explored in terms of CXCR3 mediated [^35S]GTPγS incorporation. In the [^35S]GTPγS incorporation assay the membrane preparations of HEK293T cells stably expressing CXCR3 were used. The activation of G proteins was monitored as the incorporation of [^35S]GTPγS and thus increase in the incorporated radioactivity. The potency and efficacy of the novel compounds was first compared to the reference compound 46/VUF10661. […] Table 1. The ability of the 46/VUF10661 based positive allosteric modulators to activate CXCR3 as measured in the [35S]GTPγS incorporation assay.[a]

CXCR3-PK1 = biological target: T2, CXCR3-PK1 (Homo sapiens, UniProt P49682); experiment: β-arrestin 2 recruitment assay (PathHunter, DiscoveRx), CXCR3-PK1 construct; type: cell-based
T2 construct: expressed in transfected cells; host or cells: HEK293 cells stably expressing beta-gal enzyme acceptor (PathHunter, DiscoveRx), transiently transfected
T2 sequence (P49682 1-368): T1 sequence (P49682 1-368)
Description: β-arrestin 2 recruitment assay: The measurement of β-arrestin recruitment was performed utilizing the PathHunter assay purchased from DiscoveRx (DiscoveRx, Birmingham, U.K.) according to the manufacturer's protocol. HEK293 cells stably expressing β-gal enzyme acceptor were transiently transfected with the ProLink (PK1) tagged wildtype CXCR3 receptor using the TransIT-293 transfection reagent from Mirus (purchased from MoBiTec, Goettingen, Germany). The assay was carried out in 384-well plates containing 2000 cells in 20 µL. After incubation at 37°C (5% CO2, 95% relative humidity) overnight, various concentrations of test compounds or CXCL11 (prepared in PBS, pH 7.4, containing 0.20% BSA) were added and the incubation continued for 4 h. Detection mix was then added and incubated for further 60 min at room temperature. Chemiluminescence was determined with a microplate reader Clariostar (BMG labtech, Ortenberg, Germany).
The ability of the novel ligands according to the present invention to induce CXCR3-mediated β-arrestin 2 recruitment was investigated in the assay system PathHunter (DiscoveRx), which detects the recruitment of β-amestin 2 to the activated receptor using β-galactosidase (β-gal) enzyme fragment complementation. The inventors used two different ProLink tags, ProLink1 (PK1) and ProLink2 (PK2), of which PK2 has higher affinity for the enzyme acceptor to detect weak protein-protein interactions. The CXCR3-PK2 construct is readily able to detect the differences in the propensity of CXCL11 and CXCL10 to induce β-arrestin 2 recruitment at CXCR3. […] Table 3. Ability of the 46/VUF10661 based positive allosteric modulators to activate the CXCR3 as measured in the β-arrestin 2 recruitment assay (PathHunter, DiscoveRx).[a]

[1] = % of CXCL11 mediated effect, membrane preparations of HEK293T stably expressing CXCR3
[2] = membrane preparations of HEK293T stably expressing CXCR3
[3] = HEK293-T cells, PathHunter, CXCR3-PK1, two to three experiments in triplicate

| Compound | Emax (CXCR3; [1]) [%] | CXCR3 pEC50 ± SEM (CXCR3; [2]) | CXCR3-PK1 pEC50 ± SEM (CXCR3-PK1; [3]) | CXCR3 Efficacy (%) ± SEM (CXCR3; [1]) | CXCR3 mediated G protein activation (result in words) (CXCR3) | CXCR3-PK1 efficacy (%) at 10µM (CXCR3-PK1; @10µM, % of CXCL11 mediated effect, CXCR3-PK1) [%] | EC50 (CXCR3-PK1; HEK293-T cells, PathHunter, CXCR3-PK1, two to three experiments in triplicate, read-out: CXCR3-PK1 pEC50 ± SEM (converted)) [µM] | β-arrestin 2 recruitment, intrinsic agonism (result in words) (CXCR3-PK1) | Emax (CXCR3) [%] |
| --- | --- | --- | --- | --- | --- | --- | --- | --- | --- |
| CN1CCN(C(=O)CCC(=O)N2Cc3ccccc3C[C@H]2C(=O)NCCCC[C@H](NC(=O)OC(C)(C)C)C(=O)NCC(c2ccccc2)c2ccccc2)CC1.O=C(O)C(F)(F)F [Compound 18, 4-(4-((S)-3-(((S)-5-((tert-butoxycarbonyl)amino)-6-((2,2-diphenylethyl)amino)-6-oxohexyl)carbamoyl)-3,4-dihydroisoquinolin-2(1H)-yl)-4-oxobutanoyl)-1-methylpiperazin-1-ium 2,2,2-trifluoroacetate] |  | No effect | No effect | No effect | no effect |  |  |  |  |
| CC(C)(C)OC(=O)N[C@@H](CCCCNC(=O)[C@@H]1Cc2ccccc2CN1C(=O)CCC(=O)c1cccs1)C(=O)NCC(c1ccccc1)c1ccccc1 [Compound 19, Tert-butyl ((S)-1-((2,2-diphenylethyl)amino)-1-oxo-6-((S)-2-(4-oxo-4-(thiophen-2-yl)butanoyl)-1,2,3,4-tetrahydroisoquinoline-3-carboxamido)hexan-2-yl)carbamate] |  | No effect | No effect | No effect |  |  |  |  |  |
| COc1ccc(C(=O)CCC(=O)N2Cc3ccccc3C[C@H]2C(=O)NCCCC[C@H](NC(=O)OC(C)(C)C)C(=O)NCC(c2ccccc2)c2ccccc2)cc1OC [Compound 21, Tert-butyl ((S)-6-((S)-2-(4-(3,4-dimethoxyphenyl)-4-oxobutanoyl)-1,2,3,4-tetrahydroisoquinoline-3-carboxamido)-1-((2,2-diphenylethyl)amino)-1-oxohexan-2-yl)carbamate] | 18 | 7.30±0.17 | No effect | 18±1% |  |  |  | complete loss of intrinsic agonistic properties |  |
| CC(C)(C)OC(=O)N[C@@H](CCCCNC(=O)[C@@H]1Cc2ccccc2CN1C(=O)CCCc1ccccc1)C(=O)NCC(c1ccccc1)c1ccccc1 [Compound 22, Tert-butyl ((S)-1-((2,2-diphenylethyl)amino)-1-oxo-6-((S)-2-(4-phenylbutanoyl)-1,2,3,4-tetrahydroisoquinoline-3-carboxammido)hexan-2-yl)carbamate] |  | 5.07±0.50 | No effect |  |  |  |  |  | 29 ± 15 |

Second part, led by results:

| Emax (CXCR3; [1]) [%] | CXCR3 pEC50 ± SEM (CXCR3; [2]) | CXCR3-PK1 pEC50 ± SEM (CXCR3-PK1; [3]) | CXCR3 Efficacy (%) ± SEM (CXCR3; [1]) | CXCR3 mediated G protein activation (result in words) (CXCR3) | CXCR3-PK1 efficacy (%) at 10µM (CXCR3-PK1; @10µM, % of CXCL11 mediated effect, CXCR3-PK1) [%] | EC50 (CXCR3-PK1; HEK293-T cells, PathHunter, CXCR3-PK1, two to three experiments in triplicate, read-out: CXCR3-PK1 pEC50 ± SEM (converted)) [µM] | Compound | β-arrestin 2 recruitment, intrinsic agonism (result in words) (CXCR3-PK1) | Emax (CXCR3) [%] |
| --- | --- | --- | --- | --- | --- | --- | --- | --- | --- |
| 20 ± 3 | 6.29±0.31 | No effect |  |  |  |  | CC(C)(C)OC(=O)N[C@@H](CCCCNC(=O)[C@@H]1Cc2ccccc2CN1C(=O)CCC(=O)c1ccc(F)cc1)C(=O)NCC(c1ccccc1)c1ccccc1 [Compound 13, Tert-butyl ((S)-1-((2,2-diphenylethyl)amino)-6-((S)-2-(4-(4-fluorophenyl)-4-oxobutanoyl)-1,2,3,4-tetrahydroisoquinoline-3-carboxamido)-1-oxohexan-2-yl)carbamate] | complete loss of intrinsic agonistic properties |  |
| 25 ± 3 | 5.91±0.20 | No effect |  |  |  |  | CC(C)(C)OC(=O)N[C@@H](CCCCNC(=O)[C@@H]1Cc2ccccc2CN1C(=O)CCC(=O)c1ccc(S(C)(=O)=O)cc1)C(=O)NCC(c1ccccc1)c1ccccc1 [Compound 15, Tert-butyl ((S)-1-((2,2-diphenylethyl)amino)-6-((S)-2-(4-(4-(methylsulfonyl)phenyl)-4-oxobutanoyl)-1,2,3,4-tetrahydroisoquinoline-3-carboxamido)-1-oxohexan-2-yl)carbamate] | complete loss of intrinsic agonistic properties |  |
|  | No effect | No effect | No effect | no reactivity was observed |  |  | CC(C)(C)OC(=O)N[C@@H](CCCCNC(=O)[C@@H]1Cc2ccccc2CN1C(=O)CCC(=O)N1CCCCC1)C(=O)NCC(c1ccccc1)c1ccccc1 [Compound 16, Tert-butyl ((S)-1-((2,2-diphenylethyl)amino)-1-oxo-6-((S)-2-(4-oxo-4-(piperidin-1-yl)butanoyl)-1,2,3,4-tetrahydroisoquinoline-3-carboxamido)hexan-2-yl)carbamate] |  |  |
|  | No effect | No effect | No effect | no effect |  |  | CC(C)(C)OC(=O)N[C@@H](CCCCNC(=O)[C@@H]1Cc2ccccc2CN1C(=O)CCC(=O)N1CCOCC1)C(=O)NCC(c1ccccc1)c1ccccc1 [Compound 17, Tert-butyl ((S)-1-((2,2-diphenylethyl)amino)-6-((S)-2-(4-moipholino-4--oxobutanoyl)-1,2,3,4-tetrahydroisoquinoline-3-carboxamido)-1-oxohexan-2 yl)carbamate] |  |  |
|  | No effect | No effect | No effect |  |  |  | CC(C)(C)OC(=O)N[C@@H](CCCCNC(=O)[C@@H]1Cc2ccccc2CN1C(=O)CCC(=O)c1ccco1)C(=O)NCC(c1ccccc1)c1ccccc1 [Compound 20, Tert-butyl ((S)-1-((2,2-diphenylethyl)amino)-6-((S)-2-(4-(furan-2-yl)-4-oxobutanoyl)-1,2,3,4-tetrahydroisoquinoline-3-carboxamido)-1-oxohexan-2-yl)carbamate] |  |  |
| 47 ± 3 | 5.88±0.10 |  |  |  | 70 | < 10 | CC(C)(C)OC(=O)NCCCC[C@H](NC(=O)[C@@H]1Cc2ccccc2CN1C(=O)CCC(=O)c1ccccc1)C(=O)NCC(c1ccccc1)c1ccccc1 [Compound 44, Tert-buyl ((S)-6-((2,2-diphenylethyl)amino)-6-oxo-5-((S)-2-(4-oxo-4-phenylbutanoyl)-1,2,3,4-tetrahydroisoquinoline-3-carboxamido)hexyl)carbamate] |  |  |
